In ChEMBL document CHEMBL1134265, “2-Aryl indole NK1 receptor antagonists: optimisation of the 2-aryl ring and the indole nitrogen substituent” (Bioorg Med Chem Lett, 2001):

Experiments:
Substance-P receptor [1] = target: T1, Substance-P receptor (Homo sapiens, UniProt P25103); experiment: Concentration required for displacement of [125I]-labeled substance P from cloned hNK1 receptor expressed in CHO cells(*).; type: cell-based
Gerbillinae [2] = experiment: In vivo percent inhibition of gerbil foot-tapping after 3 mg/kg, iv administration prior to icv infusion of GR-73632 in vehicle-treated animals; type: functional
Gerbillinae [3] = experiment: In vivo inhibitory dose against gerbil foot-tapping after iv administration prior to icv infusion of GR-73632 in vehicle-treated animals; type: functional; conditions: read-out: ID50 (the source's name)
Substance-P receptor [4] = target: T1, Substance-P receptor; experiment: Tested for displacement of [125I]-labeled substance P from cloned hNK1 receptor expressed in CHO cells (*); type: cell-based; conditions: concentration not given here
Substance-P receptor [5] = target: T1, Substance-P receptor; experiment: Tested for displacement of [125I]-labeled substance P from cloned hNK1 receptor expressed in CHO cells at 100 nM; type: cell-based
Gerbillinae [6] = experiment: In vivo inhibitory dose against gerbil foot-tapping after iv administration prior to icv infusion of GR-73632 for a duration of 5 min in vehicle-treated animals; type: functional; conditions: read-out: ID50 (the source's name)

T1 sequence (P25103 whole entry, the tested form may be a part): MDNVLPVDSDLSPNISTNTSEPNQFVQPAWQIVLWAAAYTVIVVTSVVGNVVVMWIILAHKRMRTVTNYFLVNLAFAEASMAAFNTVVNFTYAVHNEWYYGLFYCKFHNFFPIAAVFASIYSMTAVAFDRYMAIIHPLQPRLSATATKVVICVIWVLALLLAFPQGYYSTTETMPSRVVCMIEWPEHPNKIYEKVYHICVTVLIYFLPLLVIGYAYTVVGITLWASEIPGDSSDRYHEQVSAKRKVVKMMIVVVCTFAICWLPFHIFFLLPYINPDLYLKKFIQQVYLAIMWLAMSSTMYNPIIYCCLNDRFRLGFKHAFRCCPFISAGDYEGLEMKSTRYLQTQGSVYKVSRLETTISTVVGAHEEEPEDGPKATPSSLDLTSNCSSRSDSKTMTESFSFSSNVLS

Row | Structure (SMILES) | IC50 (Substance-P receptor [1]) | also measured
1 | COc1ccccc1N1CCN(C(=O)CCc2c(-c3ccc(C(C)C)cc3)[nH]c3ccc(C)cc23)CC1 | 0.2 nM | inhibition in vivo at 3 mg/kg (Gerbillinae [2]): 100%
2 | Cc1ccc(-c2c(CCC(=O)N3CCC(O)(Cc4ccccc4)CC3)c3cc(Cl)ccc3n2C)cn1 | 0.12 nM | ED50 (Gerbillinae [3]): 0.68 mg/kg
3 | COc1ccccc1N1CCN(C(=O)CCc2c(-c3ccc(Cl)cc3)n(CC3CC3)c3ccc(Cl)cc23)CC1 | 103 nM | 
4 | COc1ccccc1N1CCN(C(=O)CCc2c(-c3ccc(-c4ccccc4)cc3)[nH]c3ccc(C)cc23)CC1 | 7.6 nM | 
5 | COc1ccccc1N1CCN(C(=O)CCc2c(-c3cccc(Br)c3)[nH]c3ccc(C)cc23)CC1 |  | inhibition (Substance-P receptor [4]): 37%
6 | COc1ccccc1N1CCN(C(=O)CCc2c(-c3ccc(Br)cc3)[nH]c3ccc(C)cc23)CC1 |  | inhibition in vivo at 3 mg/kg (Gerbillinae [2]): 46%
7 | COc1ccccc1N1CCN(C(=O)CCc2c(-c3ccc(C(F)(F)F)cc3)[nH]c3ccc(C)cc23)CC1 | 0.44 nM | 
8 | COc1ccccc1N1CCN(C(=O)CCc2c(-c3ccc(Cl)cc3)n(CCO)c3ccc(Cl)cc23)CC1 | 0.97 nM | 
9 | COc1ccccc1N1CCN(C(=O)CCc2c(-c3ccc(Cl)cc3)n(C)c3ccc(C)cc23)CC1 | 0.11 nM | inhibition in vivo at 3 mg/kg (Gerbillinae [2]): 100%
10 | COc1ccccc1N1CCN(C(=O)CCc2c[nH]c3ccc(C)cc23)CC1 |  | inhibition (Substance-P receptor [4]): 18%
11 | COc1ccccc1N1CCN(C(=O)CCc2c3n(c4ccc(C)cc24)Cc2ccccc2-3)CC1 |  | inhibition (Substance-P receptor [5]): 55%
12 | Cn1c(-c2cccnc2)c(CCC(=O)N2CCC(O)(Cc3ccccc3)CC2)c2cc(Cl)ccc21 | 0.92 nM | 
13 | COc1ccccc1-c1[nH]c2ccc(C)cc2c1CCC(=O)N1CCN(c2ccccc2OC)CC1 | 82 nM | 
14 | COc1ccccc1N1CCN(C(=O)CCc2c(-c3ccc(C(C)(C)C)cc3)[nH]c3ccc(C)cc23)CC1 | 6.3 nM | 
15 | COc1ccccc1N1CCN(C(=O)CCc2c(-c3ccccc3)[nH]c3ccc(C)cc23)CC1 | 6.1 nM | 
16 | COc1ccccc1N1CCN(C(=O)CCc2c(-c3ccccc3Br)[nH]c3ccc(C)cc23)CC1 | 89 nM | 
17 | COC(=O)Cn1c(-c2ccc(Cl)cc2)c(CCC(=O)N2CCN(c3ccccc3OC)CC2)c2cc(Cl)ccc21 | 15 nM | 
18 | COc1ccccc1N1CCN(C(=O)CCc2c(-c3ccc(Cl)cc3)n(C(C)C)c3ccc(Cl)cc23)CC1 | 5.2 nM | 
19 | COc1ccccc1N1CCN(C(=O)CCc2c(-c3ccc(Br)cc3)n(C)c3ccc(C)cc23)CC1 | 0.14 nM | ED50 (Gerbillinae [6]): 0.5 mg/kg; inhibition in vivo at 3 mg/kg (Gerbillinae [2]): 100%
20 | COc1ccccc1N1CCN(C(=O)CCc2c(-c3ccc(C(F)(F)F)cc3)n(C)c3ccc(C)cc23)CC1 | 0.14 nM | inhibition in vivo at 3 mg/kg (Gerbillinae [2]): 93%
21 | COc1ccc(-c2[nH]c3ccc(C)cc3c2CCC(=O)N2CCN(c3ccccc3OC)CC2)cc1 | 1.5 nM | 
22 | COc1ccccc1N1CCN(C(=O)CCc2c(-c3ccc(Cl)cc3)n(C)c3ccc(Cl)cc23)CC1 | 0.28 nM | 
23 | Cn1c(-c2ccccn2)c(CCC(=O)N2CCC(O)(Cc3ccccc3)CC2)c2cc(Cl)ccc21 | 2.9 nM | 
24 | COc1ccccc1N1CCN(C(=O)CCc2c(-c3ccc(Cl)cc3)[nH]c3ccc(C)cc23)CC1 |  | inhibition in vivo at 3 mg/kg (Gerbillinae [2]): 22%
25 | Cn1c(-c2ccc(C(F)(F)F)cn2)c(CCC(=O)N2CCC(O)(Cc3ccccc3)CC2)c2cc(Cl)ccc21 | 0.12 nM | ED50 (Gerbillinae [3]): 0.1 mg/kg
26 | COc1ccccc1N1CCN(C(=O)CCc2c(-c3ccc(Cl)cc3)n(Cc3ccccc3)c3ccc(Cl)cc23)CC1 | 96 nM | 
27 | COc1ccccc1N1CCN(C(=O)CCc2c(-c3ccncc3)[nH]c3ccc(C)cc23)CC1 |  | inhibition (Substance-P receptor [4]): 58%
28 | COc1ccccc1N1CCN(C(=O)CCc2c(-c3ccc(C(C)C)cc3)n(C)c3ccc(C)cc23)CC1 | 0.33 nM | inhibition in vivo at 3 mg/kg (Gerbillinae [2]): 100%
29 | COc1cccc(-c2[nH]c3ccc(C)cc3c2CCC(=O)N2CCN(c3ccccc3OC)CC2)c1 | 8 nM | 
